89 molecules from PubChem BioAssay AID1963597 (National Center for Advancing Translational Sciences (NCATS), 2024) can be followed below.

Bounds are passed on as bounds.

The subject of the data set is human liver microsomes, metabolic stability half-life. The experiment in a line: NCATS Human Liver Microsomal (HLM) Stability Profiling. The note with it: higher = more stable; screened at 1 µM (by protocol). The method in brief: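 Substrate depletion (in vitro t1/2): 1 µM compound with 0.5 mg/mL microsomes and NADPH regenerating system, phosphate buffer pH 7.4, 37 °C. Sampled at 0, 5, 10, 15, 30, 60 min into cold acetonitrile with albendazole internal standard for MS quantification.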
For `CCN(CC)C(=O)c1cccc(C)c1`, the half-life (commonly the time needed for the level to fall by half in the phase considered) is over 120 min.
With `C[C@@H]1CCC[C@H](C)N1CCCC(O)(c1ccccc1)c1ccccn1` (some centres undefined) the figure was over 120 min; with `Cc1ccc(Cl)cc1N1CCN(C(=O)c2cn(C3CCCCC3)c(=O)c3c2c2ccccc2n3C)CC1`, 0.92 min.
In turn, `CCCOc1cc(N)ccc1C(=O)OCCN(CC)CC` registered a half-life of 70.3 min.
The figure for `O=C(O)C1CN(Cc2ccc(-c3nc4cc(Cc5ccccc5F)ccc4s3)c(F)c2)C1` is over 120 min; for `O=C(Nc1cccnc1)N1CCC(Cc2cccc(Oc3ccc(C(F)(F)F)cn3)c2)CC1` it is 33.9 min; for `Cc1nnc(C(C)C)n1C1CC2CCC(C1)N2CCC(NC(=O)C1CCC(F)(F)CC1)c1ccccc1` (centres undefined) it is over 120 min.
As for `Cc1cccc(C)c1NC(=O)[C@H]1CCCCN1C`, the half-life was over 120 min.
With `CCn1cc(C(=O)O)c(=O)c2cc(F)c(N3CCN[C@@H](C)C3)c(F)c21` the figure was 87.7 min; with `CC(C)(C)Sc1c(CC(C)(C)C(=O)O)n(Cc2ccc(Cl)cc2)c2ccc(OCc3ccc4ccccc4n3)cc12`, 34 min.
The figure for `O=C(N[C@@H](COc1ccc2[nH]c(=O)[nH]c2c1)c1ccccc1)c1cccn(Cc2ccc(F)c(F)c2)c1=O` is 42.5 min; for `CN1CC(O)c2cc(N=NC(N)=O)c(O)cc21` (centres undefined) it is over 120 min.
`CCCc1nc(C(C)(C)O)c(C(=O)O)n1Cc1ccc(-c2ccccc2-c2nn[nH]n2)cc1`: the half-life is over 120 min.
The figure for `COCCCNC(=O)C(=O)Nc1c2c(nn1-c1cccc(Cl)c1)CSC2` is 24.9 min.
With `CC(=O)N1CCCc2cc(S(=O)(=O)Nc3ccc(OC(F)(F)F)cc3)ccc21` the figure was 20.9 min.
The figure for `COC(=O)N[C@@H](C)CNc1nccc(-c2cn(C(C)C)nc2-c2cc(Cl)cc(NS(C)(=O)=O)c2F)n1` is 34.4 min.
Regarding `Cc1cccc(C=NNc2cc(N3CCOCC3)nc(OCCc3ccccn3)n2)c1`, the half-life turned out to be 16 min.
For the molecule `Cc1ccc(Cl)c(OCC(O)CNC(C)(C)C)c1` (centres undefined), the half-life is 1.53 min.
`CN(C(=O)CN(CCO)CC(=O)N(C)C(C)(C)Cc1ccccc1)C(C)(C)Cc1ccccc1`: the half-life came out at 0.58 min.
`CCN(CC)C(=O)SCc1ccc(Cl)cc1`: the half-life is 2.59 min.
As to `Cc1ccccc1NC(=O)Nc1cccs1`, the half-life is 22.8 min.
As for `COC(=O)/C=C(\C)OP(=O)(OC)OC`, the half-life stood at 19.9 min.
The figure for `CCN1CCCC1CNC(=O)c1cc(S(=O)(=O)CC)c(N)cc1OC` (centres undefined) is over 120 min.
As to `Oc1c(Cl)cc(Cl)c2cccnc12`, the half-life came to 25.2 min.
`FC(F)c1nc2ccccc2n1-c1nc(N2CCOCC2)nc(N2CCOCC2)n1` registered a half-life of 25.4 min.
With `CC(=O)[C@@]1(O)CC[C@H]2C3CCC4=CC(=O)CC[C@]4(C)C3CC[C@@]21C` (some centres undefined) the figure was 9.86 min.
As to `CCOC(=O)c1ccc(Nc2nc3nonc3nc2Nc2cccc(C)c2C)cc1`, the half-life amounted to 10.7 min.
For `CC#C[C@@H](CC(=O)O)c1ccc(OCc2ccc(CN3CCC4(C=Cc5ccccc54)CC3)s2)cc1`, the half-life was found to be 25.1 min.
Molecule `COc1cc2c(NC3CCN(CC4CCCCC4)CC3)nc(N3CCCN(C(C)C)CC3)nc2cc1OCCCN1CCCCC1` showed a half-life of 30 min.
The figure for `CC1=C(c2ccc(NC(=O)c3c(F)cccc3F)cc2)CN(c2nccs2)CC1` is 38.9 min; for `CCN(CC)CC(=O)Nc1c(C)cccc1C(=O)OC` it is 24 min; for `Cc1cc(=O)oc2cc(O)ccc12` it is 60.6 min.
`C[C@@H]1O[C@@H](OC[C@H]2O[C@@H](Oc3c(-c4ccc(O)c(O)c4)oc4cc(O)cc(O)c4c3=O)[C@H](O)[C@@H](O)[C@@H]2O)[C@H](O)[C@H](O)[C@H]1O` returned a half-life of over 120 min.
Take `Cn1cc(-c2cnc3ccc4ccc(CS(=O)(=O)NCc5ccccn5)cc4c(=O)c3c2)cn1`: the half-life worked out at 17.1 min.
With `CC(C)(C)C(=O)OCOP(=O)(COCCn1cnc2c(N)ncnc21)OCOC(=O)C(C)(C)C` the figure was 3.13 min; with `Cc1ccc([S+](=O)([O-])NC2CCC(C)(C)CC2)cc1`, 4.82 min.
Molecule `Nc1nc(O)c(C2=C3C(=Nc4ccccc43)C(=O)NCC2)[nH]1` showed a half-life of over 120 min.
The figure for `COc1ccc(CCC(C)=O)cc1` is over 120 min.
The figure for `COc1cc(OC)cc(OC)c1` is 18.1 min.
The figure for `CN1CCN(C(=O)Cc2cccn2-c2ccc(F)cc2)CC1` is over 120 min.
In turn, `CN1C(C(=O)Nc2ccccn2)=C(O)c2sccc2S1(=O)=O` showed a half-life of over 120 min.
`O=C(O)CN1C(=O)c2cccc3cccc(c23)C1=O` showed a half-life of over 120 min.
`COc1ccc(-c2ccc3ncc4c(c3c2)n(-c2ccc(N3CCNCC3)c(C(F)(F)F)c2)c(=O)n4C)cn1`: the half-life was 36.3 min.
`CCN(Cc1ccncc1)C(=O)[C@@H](CO)c1ccccc1`: the half-life was over 120 min.
`O=C(O)CC1CCC(c2ccc(-c3ccc(Nc4ccc(C(F)(F)F)nc4)cn3)cc2)CC1` (centres undefined) registered a half-life of over 120 min.
With `CCOC(=O)[C@H](CCc1ccccc1)N[C@H]1CCCN2CCC[C@@H](C(=O)O)N2C1=O` the figure was 16.7 min.
The figure for `CCc1ccc(NC(=O)N2CCN(c3nnc(C)c4c(C)n(-c5ccc(Cl)cc5)nc34)CC2)cc1` is 25.5 min; for `O=c1[nH]c2ccc(Cl)cc2c(N[C@@H]2CN3CCC2CC3)c1-c1nc2ccccc2[nH]1` it is 18.8 min.
The figure for `COc1cc2c(c(OC)c1OC)-c1ccc(OC)c(=O)cc1[C@@H](NC(C)=O)CC2` is over 120 min; for `COc1ccc(-c2ccn(CC[C@](C)(C(=O)NO)S(C)(=O)=O)c(=O)c2)c(F)c1` it is over 120 min.
Molecule `CN(C)CC#CCCC(=O)C(O)(c1ccccc1)C1CCC1` (centres undefined) yielded a half-life of 102 min.
Turning to `Cc1cn([C@@H]2O[C@H](CO)[C@@H](O)[C@H]2F)c(=O)[nH]c1=O`, the half-life amounted to 22.1 min.
`Cc1nn2c(c1-c1ccccc1Oc1ccccc1)N(Cc1ccc(C(=O)O)cc1)CCC2` came in with a half-life of 6.19 min.
With `COc1ccc(C2Sc3ccccc3N(CCN(C)C)C(=O)C2OC(C)=O)cc1` (centres undefined) the figure was 68.1 min; with `Nc1nc2c(c(N3CCNCC3)n1)CCC1=C2[C@@H]2CCCC[C@@H]2O1`, over 120 min.
The molecule `CC(C)Cc1ccc(CC(=O)O)cc1` gave a half-life of over 120 min.
`CCCCCC(=O)O[C@]1(C(C)=O)CC[C@H]2[C@@H]3CCC4=CC(=O)CC[C@]4(C)[C@H]3CC[C@@]21C` came in with a half-life of 1.86 min.
The figure for `CCCc1nc(C)c2c(=O)[nH]c(-c3cc(S(=O)(=O)N4CCN(CC)CC4)ccc3OCC)nn12` is over 120 min; for `CC(Cc1ccccc1)NCc1ccccc1Cl` (centres undefined) it is 10.6 min.
In turn, `CCC(=O)NS(=O)(=O)c1ccc(-c2c(-c3ccccc3)noc2C)cc1` had a half-life of 48.5 min.
Molecule `O=C(N/N=C/C1C=CC([N+](=O)[O-])O1)c1ccc(O)cc1` (centres undefined) returned a half-life of over 120 min.
Consider `CC(=O)O[C@]1(C(C)=O)CC[C@H]2[C@@H]3C=C(Cl)C4=CC(=O)CC[C@]4(C)[C@H]3CC[C@@]21C`, for which the half-life is 36.7 min.
Take `CCCN(CCN1CCN(c2ccccc2OC)CC1)C1CCc2ncsc2C1` (centres undefined): the half-life turned out to be 2.54 min.
Take `C=C1CC[C@@]2(O)[C@H]3Cc4ccc(O)c5c4[C@@]2(CCN3CC2CC2)[C@H]1O5`: the half-life is over 120 min.
With `COc1cccc(NC(=O)c2oc3ccc(S(=O)(=O)N4CCC5(CC4)OCCO5)cc3c2C)c1` the figure was 12.2 min; with `O=C(N[C@H]1CN2CCC1CC2)c1cc2cccc(Cl)c2s1`, over 120 min; with `CCC[C@H](N[C@@H](C)C(=O)N1[C@H](C(=O)O)C[C@@H]2CCCC[C@@H]21)C(=O)OCC`, over 120 min.
`CNCCCC12CCC(c3ccccc31)c1ccccc12` registered a half-life of over 120 min.
`CN1CCC2=C(C1)c1ccccc1Cc1ccccc12` showed a half-life of 95 min.
The figure for `NS(=O)(=O)c1cc2c(cc1Cl)NC(CSCc1ccccc1)=NS2(=O)=O` is 29.2 min.
The figure for `CN1CCN(c2cccc(Nc3nc4c(-c5ccc(S(C)(=O)=O)cc5)cccn4n3)c2)CC1` is over 120 min; for `Nc1ccn([C@@H]2O[C@H](CO)[C@H](O)C2(F)F)c(=O)n1` it is 22.3 min; for `Cc1ccc(S(=O)(=O)NC(=O)NN2CCCCCC2)cc1` it is over 120 min.
Molecule `Cn1ncc(Cl)c1-c1cc(C(=O)NC(CN)Cc2ccc(F)c(F)c2)oc1Cl` (centres undefined) registered a half-life of over 120 min.
The figure for `CCOC(=O)Cn1cccc1-c1nc(-c2ccc(OC)cc2)c(-c2ccc(OC)cc2)s1` is 0.96 min; for `CCc1nn(CCCN2CCN(c3cccc(Cl)c3)CC2)c(=O)n1CCOc1ccccc1` it is 0.98 min.
With `CCCCCOC(=O)Nc1nc(=O)n([C@@H]2O[C@H](C)[C@@H](O)[C@H]2O)cc1F` the figure was over 120 min.
As to `Cc1ccc(Nc2nc(C)c(NC(=O)c3ccc(C)cc3)c(Nc3ccc(C)cc3)n2)cc1`, the half-life was 20.5 min.
Turning to `CCCn1ncc(CN2CCCC(C(=O)c3cccc(OC(C)C)c3)C2)c1C` (centres undefined), the half-life was determined as 8.9 min.
The figure for `Clc1ccc(C(Cn2ccnc2)OCc2ccc(Sc3ccccc3)cc2)c(Cl)c1` (centres undefined) is 54.1 min; for `Cc1cc(C)cc(NC(=O)Cc2ccc(OC(C)(C)C(=O)O)cc2)c1` it is over 120 min.
As for `Cc1ccc2c(n1)Oc1ccc(C(C)C(=O)OCC(=O)N(C)C)cc1C2` (centres undefined), the half-life is 11.1 min.
With `CCCCC(=O)O[C@]1(C(=O)CO)[C@@H](C)C[C@H]2[C@@H]3CCC4=CC(=O)C=C[C@]4(C)[C@@]3(F)[C@@H](O)C[C@@]21C` the figure was 4.35 min; with `CCOC(=O)c1ncn2c1CN(C)C(=O)c1c(I)cccc1-2`, 111 min.
The figure for `C=C1C(=O)O[C@@H]2[C@H]3O[C@]3(C)CC/C=C(\C)CC[C@@H]12` is over 120 min.
The figure for `COC(=O)c1ccc([C@H]2c3[nH]c4ccccc4c3C[C@H](C(=O)OC)N2C(=O)CCl)cc1` is 8.55 min; for `CCN(CC)CCCCCCNc1cc(OC)cc2c(C)ccnc12` it is over 120 min; for `C[C@]12CC[C@H]3[C@@H](CC[C@@]45O[C@H]4C(O)=C(C#N)C[C@]35C)[C@H]1CC[C@H]2O` it is 85 min.
The molecule `O=C(CCNc1c(-c2cccc(F)c2)nc2cnccn12)N1CCCC1` yielded a half-life of 4.93 min.
